Measurements: patent US11180474B2 (BRISTOL-MYERS SQUIBB COMPANY, priority 2016, dated 2021)

What follows are compounds tested against T1, human TLR8 (Homo sapiens, UniProt Q9NR97) (assay: TLR8 inhibition reporter assay (HEK-Blue cells, SEAP reporter, R848 stimulation)). Details: HEK-Blue cells overexpressing human TLR8, R848 15.9 μM.
T1 construct: host or cells: HEK-Blue cells
T1 sequence (Q9NR97 27-1041): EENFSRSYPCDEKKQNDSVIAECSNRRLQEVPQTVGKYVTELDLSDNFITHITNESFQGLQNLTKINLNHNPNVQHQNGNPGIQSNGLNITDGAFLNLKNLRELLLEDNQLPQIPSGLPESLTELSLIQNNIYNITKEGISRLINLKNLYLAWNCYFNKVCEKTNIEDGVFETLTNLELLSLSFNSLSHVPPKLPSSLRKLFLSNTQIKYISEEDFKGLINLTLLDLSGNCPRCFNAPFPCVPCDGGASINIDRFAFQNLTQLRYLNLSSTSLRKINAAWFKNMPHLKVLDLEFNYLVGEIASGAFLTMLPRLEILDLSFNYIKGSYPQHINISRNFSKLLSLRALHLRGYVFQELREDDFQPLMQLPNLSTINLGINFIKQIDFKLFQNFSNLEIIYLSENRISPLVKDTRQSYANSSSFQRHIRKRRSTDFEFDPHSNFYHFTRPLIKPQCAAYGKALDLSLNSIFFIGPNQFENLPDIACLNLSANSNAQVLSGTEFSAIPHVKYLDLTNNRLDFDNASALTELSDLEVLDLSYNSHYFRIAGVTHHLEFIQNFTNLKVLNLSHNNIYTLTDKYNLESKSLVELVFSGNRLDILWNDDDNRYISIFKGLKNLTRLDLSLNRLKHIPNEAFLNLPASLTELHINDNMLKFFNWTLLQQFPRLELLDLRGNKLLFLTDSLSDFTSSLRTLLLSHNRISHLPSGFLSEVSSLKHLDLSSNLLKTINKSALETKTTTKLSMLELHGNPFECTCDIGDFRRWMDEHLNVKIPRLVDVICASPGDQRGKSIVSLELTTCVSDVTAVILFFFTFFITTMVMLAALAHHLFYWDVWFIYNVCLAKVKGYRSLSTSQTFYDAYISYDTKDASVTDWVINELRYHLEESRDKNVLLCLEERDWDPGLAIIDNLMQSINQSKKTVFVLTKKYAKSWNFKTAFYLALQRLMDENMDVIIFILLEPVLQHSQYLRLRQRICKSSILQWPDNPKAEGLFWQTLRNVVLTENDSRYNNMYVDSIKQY
Assay type: cell-based
Procedure, shortened: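 HEK-Blue reporter cells (15,000/well TLR7, 20,000 TLR8) exposed to compound over 0.05 nM–50 μM, agonist-stimulated (R848 for TLR8, gardiquimod for TLR7), 22 h at 37 °C, 5% CO2. SEAP read with HEK-Blue Detection; % inhibition relative to agonist-plus-DMSO and known-inhibitor controls.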

Compound	IC50
CCN1CCCC(N2CCC(c3ccc4[nH]c(-c5ccc(OC)c(OC)c5)c(C)c4c3)CC2)C1 (stereo not shown) [Example 24, 2-(3,4-dimethoxyphenyl)-5-(1′-ethyl-[1,3′-bipiperidin]-4-yl)-3-methyl-1H-indole]	27900 nM
COc1ccc(-c2[nH]c3ccc(C4CCN(C(=O)CCN5CCCCC5)CC4)cc3c2CC(F)(F)F)cc1OC [Example 330, 1-(4-(2-(3,4-dimethoxyphenyl)-3-(2,2,2-trifluoroethyl)-1H-indol-5-yl)piperidin-1-yl)-3-(piperidin-1-yl)propan-1-one]	84 nM
COc1ccc(-c2[nH]c3ccc(C4CCN(C(=O)CCCn5ccnc5)CC4)cc3c2CC(F)(F)F)cc1OC [Example 331, 1-(4-(2-(3,4-dimethoxyphenyl)-3-(2,2,2-trifluoroethyl)-1H-indol-5-yl)piperidin-1-yl)-4-(1H-imidazol-1-yl)butan-1-one]	221 nM
COc1ccc(-c2[nH]c3ccc(C4CCN(C(=O)Cc5c[nH]c6ccccc56)CC4)cc3c2CC(F)(F)F)cc1OC [Example 332, 1-(4-(2-(3,4-dimethoxyphenyl)-3-(2,2,2-trifluoroethyl)-1H-indol-5-yl)piperidin-1-yl)-2-(1H-indol-3-yl)ethan-1-one]	4110 nM
COc1ccc(-c2[nH]c3ccc(C4CCN(C(=O)CCC(N)=O)CC4)cc3c2CC(F)(F)F)cc1OC [Example 333, 4-(4-(2-(3,4-dimethoxyphenyl)-3-(2,2,2-trifluoroethyl)-1H-indol-5-yl)piperidin-1-yl)-4-oxobutanamide]	702 nM
COc1ccc(-c2[nH]c3ccc(C4CCN(C(=O)Cc5c[nH]cn5)CC4)cc3c2CC(F)(F)F)cc1OC [Example 334, 1-(4-(2-(3,4-dimethoxyphenyl)-3-(2,2,2-trifluoroethyl)-1H-indol-5-yl)piperidin-1-yl)-2-(1H-imidazol-4-yl)ethan-1-one]	412 nM
COc1ccc(-c2[nH]c3ccc(C4CCN(C(=O)Cc5cccnc5)CC4)cc3c2CC(F)(F)F)cc1OC [Example 335, 1-(4-(2-(3,4-dimethoxyphenyl)-3-(2,2,2-trifluoroethyl)-1H-indol-5-yl)piperidin-1-yl)-2-(pyridin-3-yl)ethan-1-one]	632 nM
COc1ccc(-c2[nH]c3ccc(C4CCN(C(=O)[C@@H]5CCCN5C(C)=O)CC4)cc3c2CC(F)(F)F)cc1OC [Example 336, (S)-1-(2-(4-(2-(3,4-dimethoxyphenyl)-3-(2,2,2-trifluoroethyl)-1H-indol-5-yl)piperidine-1-carbonyl)pyrrolidin-1-yl)ethan-1-one]	697 nM
COc1ccc(-c2[nH]c3ccc(C4CCN(C(=O)CCn5ccc6ccccc65)CC4)cc3c2CC(F)(F)F)cc1OC [Example 337, 1-(4-(2-(3,4-dimethoxyphenyl)-3-(2,2,2-trifluoroethyl)-1H-indol-5-yl)piperidin-1-yl)-3-(1H-indol-1-yl)propan-1-one]	5080 nM
COc1ccc(-c2[nH]c3ccc(C4CCN(C(=O)Cc5ccc(N(C)C)cc5)CC4)cc3c2CC(F)(F)F)cc1OC [Example 338, 1-(4-(2-(3,4-dimethoxyphenyl)-3-(2,2,2-trifluoroethyl)-1H-indol-5-yl)piperidin-1-yl)-2-(4-(dimethylamino)phenyl)ethan-1-one]	1460 nM
COc1ccc(-c2[nH]c3ccc(C4CCN(C(=O)CC(F)(F)F)CC4)cc3c2CC(F)(F)F)cc1OC [Example 339, 1-(4-(2-(3,4-dimethoxyphenyl)-3-(2,2,2-trifluoroethyl)-1H-indol-5-yl)piperidin-1-yl)-3,3,3-trifluoropropan-1-one]	822 nM
COc1ccc(-c2[nH]c3ccc(C4CCN(C(=O)CCN(C)C)CC4)cc3c2CC(F)(F)F)cc1OC [Example 340, 1-(4-(2-(3,4-dimethoxyphenyl)-3-(2,2,2-trifluoroethyl)-1H-indol-5-yl)piperidin-1-yl)-3-(dimethylamino)propan-1-one]	32 nM
COc1ccc(-c2[nH]c3ccc(C4CCN(C(=O)Cc5nnn[nH]5)CC4)cc3c2CC(F)(F)F)cc1OC [Example 341, 1-(4-(2-(3,4-dimethoxyphenyl)-3-(2,2,2-trifluoroethyl)-1H-indol-5-yl)piperidin-1-yl)-2-(1H-tetrazol-5-yl)ethan-1-one]	9390 nM
COc1ccc(-c2[nH]c3ccc(C4CCN(C(=O)Cc5cnccn5)CC4)cc3c2CC(F)(F)F)cc1OC [Example 342, 1-(4-(2-(3,4-dimethoxyphenyl)-3-(2,2,2-trifluoroethyl)-1H-indol-5-yl)piperidin-1-yl)-2-(pyrazin-2-yl)ethan-1-one]	591 nM
COc1ccc(-c2[nH]c3ccc(C4CCN(C(=O)CCCNC(C)=O)CC4)cc3c2CC(F)(F)F)cc1OC [Example 343, N-(4-(4-(2-(3,4-dimethoxyphenyl)-3-(2,2,2-trifluoroethyl)-1H-indol-5-yl)piperidin-1-yl)-4-oxobutyl)acetamide]	371 nM
COc1ccc(-c2[nH]c3ccc(C4CCN(C(=O)CCn5cccc5)CC4)cc3c2CC(F)(F)F)cc1OC [Example 344, 1-(4-(2-(3,4-dimethoxyphenyl)-3-(2,2,2-trifluoroethyl)-1H-indol-5-yl)piperidin-1-yl)-3-(1H-pyrrol-1-yl)propan-1-one]	1420 nM

The remaining lines, values ahead:

IC50	Compound
46 nM	COc1ccc(-c2[nH]c3ccc(C4CCNCC4F)cc3c2C(C)C)cc1OC (racemic) [Example 319, 2-(3,4-dimethoxyphenyl)-5-(3-fluoropiperidin-4-yl)-3-isopropyl-1H-indole]
124 nM	COc1ccc(-c2[nH]c3ccc(C4CCNCC4F)cc3c2C(C)C)cc1OC (racemic) [Example 320, 2-(3,4-dimethoxyphenyl)-5-(3-fluoropiperidin-4-yl)-3-isopropyl-1H-indole]
21 nM	COc1ccc(-c2[nH]c3ccc(C4CCNCC4F)cc3c2C(C)C)cc1OC (single isomer, unassigned) [Example 321, 2-(3,4-dimethoxyphenyl)-5-(3-fluoropiperidin-4-yl)-3-isopropyl-1H-indole]
22 nM	COc1ccc(-c2[nH]c3ccc(C4CCNCC4F)cc3c2C(C)C)cc1OC (single isomer, unassigned) [Example 322, 2-(3,4-dimethoxyphenyl)-5-(3-fluoropiperidin-4-yl)-3-isopropyl-1H-indole]
20 nM	COc1ccc(-c2[nH]c3ccc(C4CCNCC4F)cc3c2C(C)C)cc1OC (single isomer, unassigned) [Example 323, 2-(3,4-dimethoxyphenyl)-5-(3-fluoropiperidin-4-yl)-3-isopropyl-1H-indole]
20 nM	COc1ccc(-c2[nH]c3ccc(C4CCNCC4F)cc3c2C(C)C)cc1OC (single isomer, unassigned) [Example 324, 2-(3,4-dimethoxyphenyl)-5-(3-fluoropiperidin-4-yl)-3-isopropyl-1H-indole]
147 nM	COc1ccc(-c2[nH]c3ccc(C4CCNCC4(F)F)cc3c2C(C)C)cc1OC (stereo not shown) [Example 325, 5-(3,3-difluoropiperidin-4-yl)-2-(3,4-dimethoxyphenyl)-3-isopropyl-1H-indole]
192 nM	COc1ccc(-c2[nH]c3ccc(C4CCNC(=O)C4)cc3c2C(C)C)cc1OC (stereo not shown) [Example 326, 4-(2-(3,4-dimethoxyphenyl)-3-isopropyl-1H-indol-5-yl)piperidin-2-one]
19 nM	COc1ccc(-c2[nH]c3ccc(C4CCNCC4)cc3c2CC(F)(F)F)cc1OC [Example 329, 2-(3,4-dimethoxyphenyl)-5-(piperidin-4-yl)-3-(2,2,2-trifluoroethyl)-1H-indole]
